According to patent US20040268437A1, “Method for biosynthesizing the serotonin derivatives in plants” (CHONNAM NATIONAL UNIVERSITY, priority 2003, published 2004):
Entries after “also recorded” stand apart in the source; their conditions may differ.

Legend:
[1] = test system: Hot pepper (Variety: Pungcheon); experiment: Serotonin sprayed on hot pepper sarcocarps; serotonin derivative content by HPLC; assay type: in vivo
Protocol: Hot pepper (Variety: Pungcheon) was treated with serotonin to investigate biosynthesis of serotonin derivatives.
Serotonin solution (prepared by dissolving serotonin in water to make 1 mM concentration) was sprayed on sarcocarps of hot pepper at the rate of 10,000 L/ha. 72 hours after spraying, sarcocarps were taken to investigate the content of serotonin derivatives, for which the same method in the Example 1 was used. Sarcocarps of hot pepper not treated with serotonin were used as a control.

[2] = test system: hot pepper THT enzyme; experiment: In vitro enzyme reaction of purified hot pepper THT with serotonin, product by HPLC; assay type: biochemical, hot pepper (Capsicum annuum)
Protocol: In order to confirm whether hot pepper THT enzyme could use serotonin as an amine substrate, hot pepper THT protein, in which 6 histidines were attached on carboxy-terminal, was purified by affinity chromatography (Back et al., Plant Cell Physiol. 42, 475-481, 2001) and used for the experiment. Particularly, 1 μg of the purified hot pepper THT enzyme, 1 mM of feruloyl-CoA (Sigma-Aldrich, Korea) and 10 mM of serotonin (Sigma-Aldrich, Korea) were mixed together, followed by an enzyme reaction at 30° C. for 10 minutes. Upon completing the reaction, the reaction product was analyzed by HPLC.

[3] = sarcocarps of hot pepper, 1 mM serotonin sprayed, 10,000 L/ha, 72 hours

SMILES: NCCc1c[nH]c2ccc(O)cc12 [Serotonin, serotonin]
- Serotonin derivatives detected ([1]; sarcocarps of hot pepper treated with serotonin, in words): a large amount; also recorded: detected a lot
- Content of serotonin derivatives: Coumaroyl Serotonin [1, 3]: 1538 ng/1 g sarcocarps
- Content of serotonin derivatives: Feruloyl serotonin [1, 3]: 1028 ng/1 g sarcocarps
- Content of serotonin derivatives: Total content [1, 3]: 2566 ng/1 g sarcocarps
- Serotonin used as amine substrate, product feruloylserotonin ([2]; 1 μg THT, 1 mM feruloyl-CoA, 10 mM serotonin, 30° C., 10 minutes): uses serotonin as an amine substrate; also recorded: biosynthesis of feruloylserotonin was confirmed
- Serotonin used as amine substrate, product coumaroylserotonin ([2]; coumaroyl-CoA and serotonin as substrates (not shown)): synthesized coumaroylserotonin; also recorded: biosynthesis of coumaroylserotonin by hot pepper THT enzyme was also confirmed
